# Measured values: ChEMBL document CHEMBL1133725, “Modeling of kappa-opioid receptor/agonists interactions using pharmacophore-based and docking simulations” (J Med Chem, 2000)
# Legend:
# [1] = target: T1, Kappa-type opioid receptor (Cavia porcellus, UniProt P41144); assay: Inhibition of [3H]U-69593 binding to Opioid receptor kappa 1 in guinea pig brain homogenates; assay type: tissue-based
# [2] = target: T1, Kappa-type opioid receptor; assay: Inhibition of [3H]diprenorphine binding to Opioid receptor kappa 1 in guinea pig cerebellar fraction
# [3] = target: T1, Kappa-type opioid receptor; assay: Inhibition of [3H]EKC binding to Opioid receptor kappa 1 in guinea pig forebrain
# T1 sequence (P41144 whole entry): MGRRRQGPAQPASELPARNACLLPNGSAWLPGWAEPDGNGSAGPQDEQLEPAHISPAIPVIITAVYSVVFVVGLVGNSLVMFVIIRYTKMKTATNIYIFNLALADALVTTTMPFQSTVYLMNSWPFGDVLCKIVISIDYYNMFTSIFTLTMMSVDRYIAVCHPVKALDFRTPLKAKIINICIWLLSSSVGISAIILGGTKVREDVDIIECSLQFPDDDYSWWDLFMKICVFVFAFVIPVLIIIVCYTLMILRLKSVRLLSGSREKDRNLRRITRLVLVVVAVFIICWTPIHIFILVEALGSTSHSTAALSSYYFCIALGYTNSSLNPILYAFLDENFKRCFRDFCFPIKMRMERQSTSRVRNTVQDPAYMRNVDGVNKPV
Structure (SMILES),Ki [1] [nM],further results
O=C1N(c2ccc(Cl)c(Cl)c2)CCCN1[C@H](CN1CCCC1)c1ccccc1,0.42,–
CN1CCCC1[C@@H]1CCCCN1C(=O)Cc1ccc(Cl)c(Cl)c1 (stereo not given in full),0.33,–
COC(=O)[C@]1(c2ccccc2)C[C@@H]1CN1CC[C@@]2(C)c3cc(O)ccc3CC1[C@@H]2C,–,Ki [2]: 240 nM
O=C([C@@H]1CCc2cc(Cl)c(Cl)cc21)N1CCSC[C@H]1CN1CCCC1,0.44,–
O=C1[C@@H](c2ccc(Cl)c(Cl)c2)CCN1[C@H]1CCCC[C@@H]1N1CCCC1,–,Ki [3]: 10 nM
